Test results reported in patent US20060069132A1, “Azolecarboxamide herbicides” (priority 2004, published 2006).

Tests used:
blackgrass = experiment: Test B postemergence herbicide test; format: in vivo, Alopecurus myosuroides
How it was run: (§1)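 After treating 2-leaf paddy plants or 2–18 cm postemergence plants (1 to 4 leaves) with formulated chemical, researchers kept them in a greenhouse for 13–15 days. Effects were judged visually versus controls: 0 indicates none, 100 total control.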

giant foxtail = experiment: Test B pre-/postemergence herbicide test; format: in vivo, Setaria faberi
How it was run: (§2)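 Seeds were planted and treated preemergence with compounds formulated in a non-phytotoxic solvent mixture containing surfactant, while plants at the 1- to 4-leaf stage (2 to 18 cm) received postemergence sprays. Flooded paddy plants were grown to the 2-leaf stage. After 13 to 15 days in a greenhouse, injury was visually rated 0–100 against untreated controls.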

barnyardgrass [1] = experiment: Test B flooded paddy test; format: in vivo, Echinochloa crus-galli; conditions: 1000 g ai/ha, scale 0 to 100 (0 no effect, 100 complete control)
How it was run: as §1

barnyardgrass [2] = experiment: Test B pre-/postemergence herbicide test; format: in vivo, Echinochloa crus-galli
How it was run: (§3)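 Flooded paddy rice and barnyardgrass were treated at the 2-leaf stage; upland plantings received compound either on sown seed or on 1- to 4-leaf seedlings. All were kept 13–15 days in a greenhouse and scored visually, 0–100, relative to untreated plants.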

morningglory = experiment: Test B pre-/postemergence herbicide test; format: in vivo, Ipomoea coccinea
How it was run: as §3

cocklebur = experiment: Test B pre-/postemergence herbicide test; format: in vivo, Xanthium strumarium
How it was run: as §3

lambsquarters = experiment: Test B pre-/postemergence herbicide test; format: in vivo, Chenopodium album
How it was run: as §2

Surinam grass = experiment: Test B pre-/postemergence herbicide test; format: in vivo, Urochloa decumbens
How it was run: as §2

[3] = system: small flower umbrella sedge; experiment: Test B flooded paddy test; format: in vivo, Cyperus difformis; conditions: 1000 g ai/ha, scale 0 to 100 (0 no effect, 100 complete control)
How it was run: as §1

pigweed = experiment: Test B pre-/postemergence herbicide test; format: in vivo, Amaranthus retroflexus
How it was run: as §2

rice = experiment: Test B flooded paddy test; format: in vivo, Oryza sativa; conditions: 1000 g ai/ha, scale 0 to 100 (0 no effect, 100 complete control)
How it was run: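 Visual ratings, 0 (no effect) to 100 (complete control), made versus controls after 13–15 d greenhouse. Paddy plants treated at 2-leaf stage; postemergence plants at 1- to 4-leaf stage, 2–18 cm tall.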

wheat = experiment: Test B postemergence herbicide test; format: in vivo, Triticum aestivum; parameters: key to Wheat plant response rating: 0 = no effect, 100 = complete control
How it was run: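 Plants grow to 1- to 4-leaf stage (2–18 cm) for postemergence spraying, or to 2-leaf stage for the paddy test. Formulated compound is applied. Greenhouse holding lasts 13–15 days. Response is scored visually relative to controls, 0 no effect to 100 complete control; a dash means no result.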

velvetleaf = experiment: Test B pre-/postemergence herbicide test; format: in vivo, Abutilon theophrasti
How it was run: as §2

ducksalad = experiment: Test B flooded paddy test; format: in vivo, Heteranthera limosa; conditions: 1000 g ai/ha, scale 0 to 100 (0 no effect, 100 complete control)
How it was run: as §1

large crabgrass = experiment: Test B pre-/postemergence herbicide test; format: in vivo, Digitaria sanguinalis
How it was run: as §2

[4] = postemergence, 125 g ai/ha; visual rating, scale 0 (no effect) to 100 (complete control)
[5] = postemergence, 500 g ai/ha; scale 0 to 100, 0 is no effect, 100 is complete control
[6] = 125 g ai/ha; 0 = no effect, 100 = complete control; preemergence
[7] = 500 g ai/ha; visual rating, 0 = no effect, 100 = complete control; preemergence
[8] = 125 g ai/ha; visual rating, scale 0 (no effect) to 100 (complete control); postemergence

CCn1nc(C(C)(C)C)cc1C(=O)Nc1cccc(OC(F)(F)F)c1 [Compound 272]
60: Blackgrass plant response rating (blackgrass; [4]) | Surinam Grass plant response rating (Surinam grass; [5])
10: Foxtail, Giant plant response rating (giant foxtail; [4]) | Barnyardgrass plant response rating (0 to 100 scale) (barnyardgrass [2]; [6]) | Surinam Grass plant response rating (0 to 100 scale) (Surinam grass; [6]) | Surinam Grass plant response rating (Surinam grass; [4]) | Velvetleaf plant response rating (0 to 100 scale) (velvetleaf; [6]) | Crabgrass, Large plant response rating (large crabgrass; [4])
40: Cocklebur plant response rating (cocklebur; [4]) | Rice plant response rating (rice)
80: Barnyardgrass plant response rating (barnyardgrass [2]; [5]) | Sedge, Umbrella plant response rating [3] | Ducksalad plant response rating (ducksalad) | Crabgrass, Large plant response rating (0 to 100 scale) (large crabgrass; [6])
90: Plant response rating, Foxtail, Giant (giant foxtail; [7]) | Plant response rating, Barnyardgrass (barnyardgrass [2]; [7]) | Morningglory plant response rating (morningglory; [4]) | Cocklebur plant response rating (cocklebur; [5]) | Pigweed plant response rating (0 to 100 scale) (pigweed; [6])
50: Barnyardgrass plant response rating (barnyardgrass [1]) | Plant response rating, Velvetleaf (velvetleaf; [7]) | Velvetleaf plant response rating (velvetleaf; [4])
100: Blackgrass plant response rating (blackgrass; [5]) | Morningglory plant response rating (morningglory; [5]) | Lambsquarters plant response rating (0 to 100 scale) (lambsquarters; [6]) | Plant response rating, Lambsquarters (lambsquarters; [7]) | Lambsquarters plant response rating (lambsquarters; [4]) | Lambsquarters plant response rating (lambsquarters; [5]) | Plant response rating, Pigweed (pigweed; [7]) | Pigweed plant response rating (pigweed; [4]) | Pigweed plant response rating (pigweed; [5]) | Velvetleaf plant response rating (velvetleaf; [5]) | Plant response rating, Crabgrass, Large (large crabgrass; [7])
70: Plant response rating, Surinam Grass (Surinam grass; [7]) | Crabgrass, Large plant response rating (large crabgrass; [5])
0: Morningglory plant response rating (0 to 100 scale) (morningglory; [6]) | Cocklebur plant response rating (0 to 100 scale) (cocklebur; [6]) | Plant response rating, Cocklebur (cocklebur; [7])
30: Foxtail, Giant plant response rating (0 to 100 scale) (giant foxtail; [6]) | Foxtail, Giant plant response rating (giant foxtail; [5]) | Plant response rating, Morningglory (morningglory; [7]) | Wheat plant response rating (wheat; [5])
20: Barnyardgrass plant response rating (barnyardgrass [2]; [4]) | Wheat plant response rating (wheat; [4])

CCn1nc(C(C)(C)C)cc1C(=O)Nc1cccc(OC(C)C)c1 [Compound 273]
70: Blackgrass plant response rating (blackgrass; [5]) | Barnyardgrass plant response rating (barnyardgrass [2]; [5]) | Morningglory plant response rating (morningglory; [5]) | Lambsquarters plant response rating (0 to 100 scale) (lambsquarters; [6]) | Pigweed plant response rating (0 to 100 scale) (pigweed; [6]) | Velvetleaf plant response rating (velvetleaf; [5])
90: Plant response rating, Foxtail, Giant (giant foxtail; [7]) | Plant response rating, Barnyardgrass (barnyardgrass [2]; [7]) | Lambsquarters plant response rating (lambsquarters; [5]) | Pigweed plant response rating (pigweed; [5]) | Ducksalad plant response rating (ducksalad)
50: Blackgrass plant response rating (blackgrass; [4]) | Foxtail, Giant plant response rating (0 to 100 scale) (giant foxtail; [6]) | Plant response rating, Surinam Grass (Surinam grass; [7]) | Crabgrass, Large plant response rating (large crabgrass; [5])
10: Foxtail, Giant plant response rating (giant foxtail; [4]) | Plant response rating, Morningglory (morningglory; [7]) | Velvetleaf plant response rating (0 to 100 scale) (velvetleaf; [6])
20: Foxtail, Giant plant response rating (giant foxtail; [5]) | Barnyardgrass plant response rating (barnyardgrass [2]; [4]) | Morningglory plant response rating (morningglory; [4]) | Cocklebur plant response rating (cocklebur; [4]) | Surinam Grass plant response rating (0 to 100 scale) (Surinam grass; [6]) | Surinam Grass plant response rating (Surinam grass; [4])
80: Cocklebur plant response rating (cocklebur; [5]) | Sedge, Umbrella plant response rating [3] | Pigweed plant response rating (pigweed; [4]) | Crabgrass, Large plant response rating (0 to 100 scale) (large crabgrass; [6])
60: Barnyardgrass plant response rating (barnyardgrass [1]) | Lambsquarters plant response rating (lambsquarters; [4])
100: Plant response rating, Lambsquarters (lambsquarters; [7]) | Plant response rating, Pigweed (pigweed; [7]) | Plant response rating, Crabgrass, Large (large crabgrass; [7])
30: Barnyardgrass plant response rating (0 to 100 scale) (barnyardgrass [2]; [6]) | Wheat plant response rating (wheat; [4]) | Crabgrass, Large plant response rating (large crabgrass; [4])
40: Surinam Grass plant response rating (Surinam grass; [5]) | Rice plant response rating (rice) | Wheat plant response rating (wheat; [5]) | Plant response rating, Velvetleaf (velvetleaf; [7]) | Velvetleaf plant response rating (velvetleaf; [4])
0: Morningglory plant response rating (0 to 100 scale) (morningglory; [6]) | Cocklebur plant response rating (0 to 100 scale) (cocklebur; [6]) | Plant response rating, Cocklebur (cocklebur; [7])

CCn1nc(C(C)(C)C)cc1C(=O)Nc1cccc(C(=O)N2CC=CC2)c1 [Compound 286]
100: Lambsquarters plant response rating (0 to 100 scale) (lambsquarters; [6]) | Plant response rating, Lambsquarters (lambsquarters; [7]) | Pigweed plant response rating (0 to 100 scale) (pigweed; [6]) | Plant response rating, Pigweed (pigweed; [7]) | Pigweed plant response rating (pigweed; [5]) | Plant response rating, Crabgrass, Large (large crabgrass; [7])
70: Lambsquarters plant response rating (lambsquarters; [5]) | Rice plant response rating (rice)
80: Sedge, Umbrella plant response rating [3]
0: Barnyardgrass plant response rating (barnyardgrass [2]; [4]) | Barnyardgrass plant response rating (barnyardgrass [2]; [5]) | Morningglory plant response rating (0 to 100 scale) (morningglory; [6]) | Plant response rating, Morningglory (morningglory; [7]) | Morningglory plant response rating (morningglory; [4]) | Morningglory plant response rating (morningglory; [5]) | Cocklebur plant response rating (0 to 100 scale) (cocklebur; [6]) | Plant response rating, Cocklebur (cocklebur; [7]) | Velvetleaf plant response rating (0 to 100 scale) (velvetleaf; [6]) | Crabgrass, Large plant response rating (0 to 100 scale) (large crabgrass; [6]) | Crabgrass, Large plant response rating (large crabgrass; [4])
10: Blackgrass plant response rating (blackgrass; [4]) | Foxtail, Giant plant response rating (0 to 100 scale) (giant foxtail; [6]) | Cocklebur plant response rating (cocklebur; [4]) | Lambsquarters plant response rating (lambsquarters; [4]) | Surinam Grass plant response rating (0 to 100 scale) (Surinam grass; [6]) | Surinam Grass plant response rating (Surinam grass; [4]) | Velvetleaf plant response rating (velvetleaf; [4]) | Crabgrass, Large plant response rating (large crabgrass; [5])
60: Plant response rating, Surinam Grass (Surinam grass; [7]) | Pigweed plant response rating (pigweed; [4]) | Plant response rating, Velvetleaf (velvetleaf; [7]) | Velvetleaf plant response rating (velvetleaf; [5])
90: Plant response rating, Foxtail, Giant (giant foxtail; [7]) | Barnyardgrass plant response rating (barnyardgrass [1]) | Plant response rating, Barnyardgrass (barnyardgrass [2]; [7]) | Ducksalad plant response rating (ducksalad)
20: Blackgrass plant response rating (blackgrass; [5]) | Foxtail, Giant plant response rating (giant foxtail; [4]) | Cocklebur plant response rating (cocklebur; [5]) | Surinam Grass plant response rating (Surinam grass; [5]) | Wheat plant response rating (wheat; [4])
30: Barnyardgrass plant response rating (0 to 100 scale) (barnyardgrass [2]; [6]) | Wheat plant response rating (wheat; [5])
50: Foxtail, Giant plant response rating (giant foxtail; [5])

CCn1nc(C(C)(C)C)cc1C(=O)Nc1cncc(C(=O)N(C)C)n1 [Compound 287]
50: Surinam Grass plant response rating (0 to 100 scale) (Surinam grass; [6])
100: Plant response rating, Barnyardgrass (barnyardgrass [2]; [7]) | Lambsquarters plant response rating (0 to 100 scale) (lambsquarters; [6]) | Plant response rating, Lambsquarters (lambsquarters; [7]) | Plant response rating, Pigweed (pigweed; [7]) | Plant response rating, Velvetleaf (velvetleaf; [7]) | Plant response rating, Crabgrass, Large (large crabgrass; [7])
80: Foxtail, Giant plant response rating (giant foxtail; [5]) | Barnyardgrass plant response rating (barnyardgrass [1]) | Barnyardgrass plant response rating (0 to 100 scale) (barnyardgrass [2]; [6]) | Plant response rating, Surinam Grass (Surinam grass; [7]) | Sedge, Umbrella plant response rating [3] | Ducksalad plant response rating (ducksalad)
10: Blackgrass plant response rating (blackgrass; [8]) | Foxtail, Giant plant response rating (0 to 100 scale) (giant foxtail; [6]) | Plant response rating, Morningglory (morningglory; [7]) | Cocklebur plant response rating (cocklebur; [8]) | Cocklebur plant response rating (cocklebur; [5]) | Lambsquarters plant response rating (lambsquarters; [8]) | Surinam Grass plant response rating (Surinam grass; [5]) | Wheat plant response rating (wheat; [8])
30: Blackgrass plant response rating (blackgrass; [5]) | Pigweed plant response rating (pigweed; [5]) | Wheat plant response rating (wheat; [5])
20: Foxtail, Giant plant response rating (giant foxtail; [8]) | Barnyardgrass plant response rating (barnyardgrass [2]; [5]) | Morningglory plant response rating (morningglory; [5]) | Lambsquarters plant response rating (lambsquarters; [5]) | Pigweed plant response rating (pigweed; [8])
70: Rice plant response rating (rice) | Crabgrass, Large plant response rating (0 to 100 scale) (large crabgrass; [6])
90: Plant response rating, Foxtail, Giant (giant foxtail; [7]) | Pigweed plant response rating (0 to 100 scale) (pigweed; [6])
60: Plant response rating, Cocklebur (cocklebur; [7]) | Velvetleaf plant response rating (velvetleaf; [5])
0: Barnyardgrass plant response rating (barnyardgrass [2]; [8]) | Morningglory plant response rating (0 to 100 scale) (morningglory; [6]) | Morningglory plant response rating (morningglory; [8]) | Cocklebur plant response rating (0 to 100 scale) (cocklebur; [6]) | Surinam Grass plant response rating (Surinam grass; [8]) | Velvetleaf plant response rating (velvetleaf; [8]) | Crabgrass, Large plant response rating (large crabgrass; [8]) | Crabgrass, Large plant response rating (large crabgrass; [5])
